Source: patent publication US7511145B2 (Genelabs Technologies, Inc., priority 2003, dated 2009)

Target: T1, HCV-NS5b (Hepatitis C virus genotype 1b, UniProt Q9WMX2)
T1 construct: (His)6 (C); made in house; host or cells: XL-1 cells (E. coli), IPTG-inducible plasmid, nickel-NTA purification
Experiment: HCV-NS5b enzyme assay (incorporation of radiolabeled UTP)
Format: biochemical
Conditions: for inhibition at 33 µM: enzyme inhibition at compound concentration of 33 uM; for inhibition at 100 µM: read-out: % inh@100, enzyme inhibition at compound concentration of 100 uM
Excerpt: The coding sequence of NS5b protein was cloned by PCR from pFKI389luc/NS3-3′/ET as described by Lohmann, V., et al. (1999) Science 285, 110-113 using the following primers: […]
The cloned fragment was missing the C terminus 21 amino acid residues. The cloned fragment was inserted into an IPTG-inducible expression plasmid that provided an epitope tag (His)6 at the carboxy terminus of the protein.
The recombinant enzyme was expressed in XL-1 cells and after induction of expression, the protein was purified using affinity chromatography on a nickel-NTA column. Storage condition was 10 mM Tris-HCl pH 7.5, 50 mM NaCl, 0.1 mM EDTA, 1 mM DTT, 20% glycerol at −20° C.
The polymerase activity was assayed by measuring incorporation of radiolabeled UTP into a RNA product using a biotinylated, heteropolymeric template, which included a portion of the HCV genome. Typically, the assay mixture (50 μL) contained 10 mM Tris-HCl (pH 7.5), 5 mM MgCl2, 0.2 mM EDTA, 10 mM KCl, 1 unit/μL RNAsin, 1 mM DTT, 10 μM each of NTP, including [^3H]-UTP, and 10 ng/μL heteropolymeric template. Test compounds were initially dissolved in 100% DMSO and further diluted in aqueous buffer containing 5% DMSO. Typically, compounds were tested at concentrations between 1 nM and 100 μM. Reactions were started with addition of enzyme and allowed to continue at 37° C. for 2 hours. Reactions were quenched with 8 μL of 100 mM EDTA and reaction mixtures (30 μL) were transferred to streptavidin-coated scintillation proximity microtiter plates (FlashPlates) and incubated at 4° C. overnight. Incorporation of radioactivity was determined by scintillation counting.
Shown in Table IX below are the values for enzyme inhibition measured at compound concentrations of 100 and 33 uM, (% inh@[…] and % inh@33, respectively). The percent inhibition values are calculated from the differential incorporation of radioactivity compared to a control reaction without compound: % inhibition=100−[(CountsINH−CountsBKG)/CountsCTRL−CountsBKG)×100 where CountsINH is the signal of the testwell with inhibitor, CountsBKG is the background signal and CountsCTRL is the signal of a testwell without inhibitor.

Structure (SMILES) | inhibition at 33 µM | inhibition at 100 µM
O=C(O)CC[C@H](NC(=O)c1ccc2c(c1)nc(-c1ccc3nc(-c4ccccc4)cnc3c1)n2C1CCCCC1)C(=O)O [Compound 245, 2-{[1-Cyclohexyl-2-(2-phenyl-quinoxalin-6-yl)-1H-benzoimidazole-5-carbonyl]-amino}-pentanedioic acid] | 73.2% | 97.4%
O=C(N[C@@H](Cc1ccccc1)C(=O)O)c1ccc2c(c1)nc(-c1ccc3nc(-c4ccccc4)cnc3c1)n2C1CCCCC1 [Compound 246, 2-{[1-Cyclohexyl-2-(2-phenyl-quinoxalin-6-yl)-1H-benzoimidazole-5-carbonyl]-amino}-3-phenyl-propionic acid] | 95.9% | 96.4%
O=C(N[C@@H](Cc1c[nH]cn1)C(=O)O)c1ccc2c(c1)nc(-c1ccc3nc(-c4ccccc4)cnc3c1)n2C1CCCCC1 [Compound 247, 2-{[1-Cyclohexyl-2-(2-phenyl-quinoxalin-6-yl)-1H-benzoimidazole-5-carbonyl]-amino}-3-(1H-imidazol-4-yl)-propionic acid] | 66.8% | 94.2%
O=C(O)[C@@H]1C[C@@H](O)CN1C(=O)c1ccc2c(c1)nc(-c1ccc3nc(-c4ccccc4)cnc3c1)n2C1CCCCC1 [Compound 248, 1-[1-Cyclohexyl-2-(2-phenyl-quinoxalin-6-yl)-1H-benzoimidazole-5-carbonyl]-4-hydroxy-pyrrolidine-2-carboxylic acid] | 47.4% | 86.8%
CC[C@H](C)[C@H](NC(=O)c1ccc2c(c1)nc(-c1ccc3nc(-c4ccccc4)cnc3c1)n2C1CCCCC1)C(=O)O [Compound 249, 2-{[1-Cyclohexyl-2-(2-phenyl-quinoxalin-6-yl)-1H-benzoimidazole-5-carbonyl]-amino}-3-methyl-pentanoic acid] | 94.5% | 97.2%
c1ccc(-c2cnc3cc(-c4nc5cc(-c6nn[nH]n6)ccc5n4C4CCCCC4)ccc3n2)cc1 [Compound 258, 6-[1-cyclohexyl-5-(1H-tetrazol-5-yl)-1H-benzimidazol-2-yl]-2-phenylquinoxaline] | 97% | 98%
O=C(c1ccc(-c2ccc(Cl)cc2)c(-c2ccc3cc(-c4nc5cc(-c6nnn[nH]6)ccc5n4C4CCCCC4)ccc3n2)c1)N1CCCC1 [Compound 259, (4′-chloro-2-{6-[1-cyclohexyl-5-(1H-tetrazol-5-yl)-1H-benzoimidazol-2-yl]-quinolin-2-yl}-biphenyl-4-yl)-pyrrolidin-1-yl-methanone] | 99.7% | 99.4%
C[C@H](NC(=O)c1ccc2c(c1)nc(-c1ccc3nc(-c4ccccc4)cnc3c1)n2C1CCCCC1)C(=O)O [Compound 310, 2-[(2-(2-phenyl-quinoxalin-6-yl)-1-cyclohexyl-1H-benzoimidazole-5-carbonyl)-amino]-propionic acid] | 83.2% | 98.3%
O=C(O)CNC(=O)c1ccc2c(c1)nc(-c1ccc3nc(-c4ccccc4)cnc3c1)n2C1CCCCC1 [Compound 311, {[1-Cyclohexyl-2-(2-phenyl-quinoxalin-6-yl)-1H-benzoimidazole-5-carbonyl]-amino}-acetic acid] | 83% | 93.3%
O=C(O)c1ccc2c(c1)nc(-c1ccc3cc(-c4ccccc4)cnc3c1)n2C1CCCCC1 [Compound 351, 1-cyclohexyl-2-(3-phenyl-quinolin-7-yl)-1H-benzoimidazole-5-carboxylic acid] | 94.9% | 98.1%
O=C(O)c1ccc2c(c1)nc(-c1ccc3nc(-c4ccccc4Br)ccc3c1)n2C1CCCCC1 [Compound 352, 2-[2-(2-bromo-phenyl)-quinolin-6-yl]-1-cyclohexyl-1H-benzoimidazole-5-carboxylic acid] | 94.2% | 98.8%
O=C(O)c1ccc2[nH]c(-c3ccc4nc(-c5ccccc5-c5ccc(Cl)cc5)ccc4c3)nc2c1 [Compound 353, 2-[2-(4′-Chloro-biphen-2-yl)-quinolin-6-yl]-1H-benzoimidazole-5-carboxylic acid] | 67.3% | 67.5%
O=C(O)c1ccc2c(c1)nc(-c1ccc3nc(-c4cc(Br)ccc4O)ccc3c1)n2C1CCCCC1 [Compound 354, 2-[2-(5-Bromo-2-hydroxy-phenyl)-quinolin-6-yl]-1-cyclohexyl-1H-benzoimidazole-5-carboxylic acid] | 98% | 101%
O=C(O)c1ccc2c(c1)nc(-c1ccc3nc(-c4cccnc4)ccc3c1)n2C1CCCCC1 [Compound 355, 1-cyclohexyl-2-(2-pyridin-3-yl-quinolin-6-yl)-1H-benzoimidazole-5-carboxylic acid] | 72.3% | 89.3%
COc1ccc(-c2ccc(Cl)cc2)c(-c2ccc3cc(-c4nc5cc(C(=O)O)ccc5n4C4CCCCC4)ccc3n2)c1 [Compound 356, 2-[2-(4′-Chloro-4-methoxy-biphen-2-yl)-quinolin-6-yl]-1-cyclohexyl-1H-benzoimidazole-5-carboxylic acid] | 101% | 100%
O=C(O)c1ccc2c(c1)nc(-c1ccc3nc(-c4cccc5ccccc45)ccc3c1)n2C1CCCCC1 [Compound 357, 1-cyclohexyl-2-(2-naphthalen-1-yl-quinolin-6-yl)-1H-benzoimidazole-5-carboxylic acid] | 98.8% | 101%
Nc1ccc(-c2ccc3cc(-c4nc5cc(C(=O)O)ccc5n4C4CCCCC4)ccc3n2)cc1 [Compound 358, 2-[2-(4-amino-phenyl)-quinolin-6-yl]-1-cyclohexyl-1H-benzoimidazole-5-carboxylic acid] | 85.1% | 95.3%
O=C(O)COc1cccc(-c2ccc3cc(-c4nc5cc(C(=O)O)ccc5n4C4CCCCC4)ccc3n2)c1 [Compound 359, 2-[2-(3-Carboxymethoxy-phenyl)-quinolin-6-yl]-1-cyclohexyl-1H-benzoimidazole-5-carboxylic acid] | 97.3% | 99.6%
O=C(O)c1ccc2c(c1)nc(-c1ccc3nc(-c4cc(OCC(=O)N5CCCC5)ccc4-c4ccccc4)ccc3c1)n2C1CCCCC1 [Compound 360, 1-cyclohexyl-2-{2-[4-(2-oxo-2-pyrrolidin-1-yl-ethoxy)-biphen-2-yl]-quinolin-6-yl}-1H-benzoimidazole-5-carboxylic acid] | 97.6% | 97.9%
NC(=O)CNC(=O)c1ccc(-c2ccc(Cl)cc2)c(-c2ccc3cc(-c4nc5cc(C(=O)O)ccc5n4C4CCCCC4)ccc3n2)c1 [Compound 361, 2-{2-[4-(Carbamoylmethyl-carbamoyl)-4′-chloro-biphen-2-yl]-quinolin-6-yl}-1-cyclohexyl-1H-benzoimidazole-5-carboxylic acid] | 100% | 98.7%
CNC(=O)c1ccc(-c2ccccc2)c(-c2ccc3cc(-c4nc5cc(C(=O)O)ccc5n4C4CCCCC4)ccc3n2)c1 [Compound 362, 1-cyclohexyl-2-[2-(4-methylcarbamoyl-biphen-2-yl)-quinolin-6-yl]-1H-benzoimidazole-5-carboxylic acid] | 101% | 98.4%
Nc1c(Cl)cc(-c2ccc3cc(-c4nc5cc(C(=O)O)ccc5n4C4CCCCC4)ccc3n2)cc1Cl [Compound 363, 2-[2-(4-amino-3,5-dichloro-phenyl)-quinolin-6-yl]-1-cyclohexyl-1H-benzoimidazole-5-carboxylic acid] | 98.4% | 101%
O=C(O)c1ccc2c(c1)nc(-c1ccc3nc(-c4ccc(O)cc4O)ccc3c1)n2C1CCCCC1 [Compound 364, 1-cyclohexyl-2-[2-(2,4-dihydroxy-phenyl)-quinolin-6-yl]-1H-benzoimidazole-5-carboxylic acid] | 98.6% | 101%
COc1ccc(-c2ccc(C#N)cc2)c(-c2ccc3cc(-c4nc5cc(C(=O)O)ccc5n4C4CCCCC4)ccc3n2)c1 [Compound 365, 2-[2-(4′-cyano-4-methoxy-biphen-2-yl)-quinolin-6-yl]-1-cyclohexyl-1H-benzoimidazole-5-carboxylic acid] | 102% | 103%
COc1ccc(-c2ccc(F)c(Cl)c2)c(-c2ccc3cc(-c4nc5cc(C(=O)O)ccc5n4C4CCCCC4)ccc3n2)c1 [Compound 366, 2-[2-(3′-chloro-4′-fluoro-4-methoxy-biphen-2-yl)-quinolin-6-yl]-1-cyclohexyl-1H-benzoimidazole-5-carboxylic acid] | 97.6% | 99.4%
